# According to patent US20150259344A1, “IMIDAZOLE DERIVATIVE” (DAINIPPON SUMITOMO PHARMA CO., LTD., priority 2012, published 2015):
# Read-outs that look alike come from different tables or passages of the source.
# Biological target: T1, human α7 nAChR (Homo sapiens, UniProt P36544)
# T1 construct: expressed in transfected cells
# Assay: Evaluation of PAM activity with human α7 nACh receptor stably expressing cells (aequorin luminescence, FDSS7000)
# Type: cell-based
# Conditions: for activity at 10 µM: read-out: α7PAM (%) @10 μM; for activity at 1 µM: 1 μM test compound (values marked *, footnote of Table 25), read-out: α7PAM (%) @1 μM
# Procedure, shortened: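 Human α7 nAChR stable cells loaded with 4 μM Viviren (final) for 4 h at room temperature in the dark. Compounds in Hanks/20 mM HEPES/0.2% BSA were added and luminescence recorded on FDSS7000. PAM activity = RLU (Max-Min) ratio of test wells to control wells.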
# [1] = 10 μM test compound, ACh at EC20, ratio of RLU (Max-Min) to control wells
# [2] = ACh at EC20, ratio of RLU (Max-Min) to control wells
# T1 sequence (P36544 23-502): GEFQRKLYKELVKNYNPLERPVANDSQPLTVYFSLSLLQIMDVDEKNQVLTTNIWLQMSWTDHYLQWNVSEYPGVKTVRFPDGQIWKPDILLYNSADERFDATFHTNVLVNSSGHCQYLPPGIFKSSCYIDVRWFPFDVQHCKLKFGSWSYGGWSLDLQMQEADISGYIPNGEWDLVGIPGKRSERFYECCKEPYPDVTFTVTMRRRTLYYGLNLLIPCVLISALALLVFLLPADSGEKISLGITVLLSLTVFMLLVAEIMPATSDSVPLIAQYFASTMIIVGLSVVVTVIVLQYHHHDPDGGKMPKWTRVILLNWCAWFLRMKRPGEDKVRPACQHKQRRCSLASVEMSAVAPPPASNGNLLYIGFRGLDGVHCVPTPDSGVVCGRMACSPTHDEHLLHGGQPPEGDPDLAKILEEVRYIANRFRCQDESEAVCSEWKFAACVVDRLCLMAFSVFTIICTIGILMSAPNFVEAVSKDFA
SMILES,activity at 10 µM [1] [%],other results
"FC(F)(F)c1cc(N[C@H]2CC[C@@H](n3cnc(-c4ccccc4)c3)CC2)ncn1 [Example 235, N-[cis-4-(4-Phenyl-1H-imidazol-1-yl)cyclohexyl]-6-(trifluoromethyl)pyrimidin-4-amine]",–,"activity at 10 µM (GH4-C1, 10 μM test compound, ratio of RLU (Max-Min) of test wells to control wells after ACh at EC20, GH4C1 cells expressing human α7 nAChR and aequorin): 631%"
Fc1ccc(-c2ncn([C@H]3CC[C@@H](Nc4cc(C(F)(F)F)ncn4)CC3)c2Cl)cc1 [Example 237],405,–
Cc1c(-c2ccc(F)cc2)ncn1[C@H]1CC[C@@H](Nc2cc(C(F)(F)F)ncn2)CC1 [Example 239],207,–
O=C(NC1CCCCC1)N1CCCC(n2cnc(-c3ccc(F)cc3)c2)CC1 (stereo not shown) [Example 240],280,–
O=C(C1CCC(F)(F)CC1)N1CCCC(n2cnc(-c3ccc(F)cc3)c2)CC1 (stereo not shown) [Example 242],297,–
O=C(NC1CCOCC1)N1CCC(n2cnc(-c3cccc(F)c3)c2)CC1 [Example 244],175,–
O=C(NC1CCOCC1)N1CCC(n2cnc(-c3ccc(Cl)cc3F)c2)CC1 [Example 248],901,–
O=C(NC1CCOCC1)N1CCC(n2cnc(-c3ccc(C(F)(F)F)c(F)c3)c2)CC1 [Example 251],369,–
O=C(NC1CCOCC1)N1CCC(n2cnc(-c3ccccc3F)c2Cl)CC1 [Example 252],648,–
CC(C)(F)C(=O)N[C@H]1CC[C@@H](n2cnc(-c3ccc(F)cc3)c2)CC1 [Example 277],–,α7PAM (%) @10 μM [1]: 424%
CC(C)(F)C(=O)N[C@H]1CC[C@@H](n2cnc(-c3ccc(OC(F)(F)F)cc3)c2)CC1 [Example 278],834,–
CC(C)(C)C(=O)N[C@H]1CC[C@@H](n2cnc(-c3ccc(OC(F)(F)F)cc3)c2)CC1 [Example 279],236,–
CC(C)(C)C(=O)N[C@H]1CC[C@@H](n2cnc(-c3ccc(Cl)cc3)c2)CC1 [Example 281],411,–
O=C(N[C@H]1CC[C@@H](n2cnc(-c3ccc(F)cc3)c2)CC1)C1CCOCC1 [Example 282],229,–
"CC(C)(F)C(=O)N[C@H]1CC[C@@H](n2cnc(-c3ccc(Cl)cc3F)c2)CC1 [Example 283, N-{cis-4-[4-(4-chloro-2-fluorophenyl)-1H-imidazol-1-yl]cyclohexyl}-2-fluoro-2-methylpropanamide]",390,–
CC(C)(F)C(=O)N[C@H]1CC[C@@H](n2cnc(-c3cc(Cl)ccc3F)c2)CC1 [Example 284],398,–
COc1ccc(-c2cn([C@H]3CC[C@@H](NC(=O)C(C)(C)F)CC3)cn2)cc1 [Example 285],869,–
CC(C)(F)C(=O)N[C@H]1CC[C@@H](n2cnc(-c3cccc(Cl)c3)c2)CC1 [Example 286],469,–
O=C(N[C@H]1CC[C@@H](n2cnc(-c3ccc(F)cc3)c2)CC1)C(F)F [Example 289],125,–
CC(F)(F)C(=O)N[C@H]1CC[C@@H](n2cnc(-c3ccc(Cl)cc3)c2)CC1 [Example 291],420,–
O=C(N[C@H]1CC[C@@H](n2cnc(-c3ccc(Cl)cc3)c2)CC1)C(F)F [Example 292],101,–
CC(C)(C(=O)N[C@H]1CC[C@@H](n2cnc(-c3ccc(Cl)cc3)c2)CC1)C(F)(F)F [Example 293],211,–

SMILES,activity at 10 µM [1] [%],other results
CC(C)(F)C(=O)N[C@H]1CC[C@@H](n2cnc(-c3cccc(F)c3)c2)CC1 [Example 294],326,–
CC(C)(F)C(=O)N[C@H]1CC[C@@H](n2cnc(-c3ccc(F)c(OC(F)(F)F)c3)c2)CC1 [Example 295],–,activity at 1 µM [2]: 444%
CC(C)(F)C(=O)N[C@H]1CC[C@@H](n2cnc(-c3ccc(OC(F)(F)F)c(F)c3)c2)CC1 [Example 296],–,activity at 1 µM [2]: 589%
CC(C)(F)C(=O)N[C@H]1CC[C@@H](n2cnc(-c3ccccc3F)c2)CC1 [Example 297],866,–
CC(C)(F)C(=O)N[C@H]1CC[C@@H](n2cnc(-c3cccc(OC(F)(F)F)c3)c2)CC1 [Example 298],166,–
CC(C)(F)C(=O)N[C@H]1CC[C@@H](n2cnc(-c3cccc(F)c3F)c2)CC1 [Example 299],893,–
CC(C)(F)C(=O)N[C@H]1CC[C@@H](n2cnc(-c3cc(F)ccc3F)c2)CC1 [Example 301],828,–
CC(C)(F)C(=O)N[C@H]1CC[C@@H](n2cnc(-c3cc(F)cc(F)c3)c2)CC1 [Example 302],325,–
CC(C)(F)C(=O)N[C@H]1CC[C@@H](n2cnc(-c3ccc(OC(F)(F)F)cc3F)c2)CC1 [Example 303],208,–
CC(C)(F)C(=O)N[C@H]1CC[C@@H](n2cnc(-c3cc(OC(F)(F)F)ccc3F)c2)CC1 [Example 304],–,activity at 1 µM [2]: 600%
COc1ccc(-c2cn([C@H]3CC[C@@H](NC(=O)C(C)(C)F)CC3)cn2)c(F)c1 [Example 307],634,–
COc1ccc(-c2cn([C@H]3CC[C@@H](NC(=O)C(C)(C)F)CC3)cn2)cc1Cl [Example 308],513,–
COc1cc(-c2cn([C@H]3CC[C@@H](NC(=O)C(C)(C)F)CC3)cn2)ccc1Cl [Example 309],–,activity at 1 µM [2]: 181%
CC(C)(F)C(=O)N[C@H]1CC[C@@H](n2cnc(-c3ccc(F)c(F)c3)c2)CC1 [Example 310],227,–
CC(C)(F)C(=O)N[C@H]1CC[C@@H](n2cnc(-c3ccccc3OC(F)(F)F)c2)CC1 [Example 311],290,–
CC(C)(F)C(=O)N[C@H]1CC[C@@H](n2cnc(-c3ccc(F)c(F)c3F)c2)CC1 [Example 312],662,–
CC(C)(F)C(=O)N[C@H]1CC[C@@H](n2cnc(-c3cc(F)c(F)cc3F)c2)CC1 [Example 313],–,activity at 1 µM [2]: 273%
CC(C)(F)C(=O)N[C@H]1CC[C@@H](n2cnc(-c3c(F)cc(F)cc3F)c2)CC1 [Example 314],591,–
CC(C)(F)C(=O)N[C@H]1CC[C@@H](n2cnc(-c3c(F)cccc3F)c2)CC1 [Example 315],501,–
CC(C)(F)C(=O)N[C@H]1CC[C@@H](n2cnc(-c3cc(F)c(Cl)cc3F)c2)CC1 [Example 316],–,activity at 1 µM [2]: 267%
CC(C)(F)C(=O)N[C@H]1CC[C@@H](n2cnc(-c3cc(F)c(F)cc3Cl)c2)CC1 [Example 317],–,activity at 1 µM [2]: 345%
CC(C)(F)C(=O)N[C@H]1CC[C@@H](n2cnc(-c3cc(Cl)c(F)cc3F)c2)CC1 [Example 318],–,activity at 1 µM [2]: 179%

# Second part, led by results:
activity at 10 µM [1] [%],SMILES,other results
314,O=C(NC1CCCCC1)N1CCCC(n2cnc(-c3ccc(F)cc3)c2Cl)CC1 (stereo not shown) [Example 241],–
290,O=C(C1CCC(F)(F)CC1)N1CCCC(n2cnc(-c3ccc(F)cc3)c2Cl)CC1 (stereo not shown) [Example 243],–
197,O=C(NC1CCOCC1)N1CCC(n2cnc(-c3ccc(F)cc3)c2)CC1 [Example 245],–
899,O=C(NC1CCOCC1)N1CCC(n2cnc(-c3cccc(F)c3)c2Cl)CC1 [Example 253],–
759,N#Cc1c(-c2ccc(F)cc2)ncn1C1CCN(C(=O)NC2CCCCC2)CC1 [Example 255],–
439,Cc1c(-c2ccc(F)cc2)ncn1C1CCN(C(=O)NC(C)(C)C)CC1 [Example 257],–
420,Cc1c(-c2ccc(F)cc2)ncn1C1CCN(C(=O)NC2CCOCC2)CC1 [Example 259],–
146,CC(C)(F)C(=O)N1CCC(n2cnc(-c3ccc(F)cc3)c2)CC1 [Example 260],–
399,O=C(C1CCC(F)(F)CC1)N1CCC(n2cnc(-c3ccc(F)cc3)c2)CC1 [Example 261],–
603,O=C(C1CCOCC1)N1CCC(n2cnc(-c3ccc(C(F)(F)F)cc3)c2Cl)CC1 [Example 262],–
193,CC(C)(F)C(=O)N1CCC(n2cnc(-c3ccc(F)cc3)c2Cl)CC1 [Example 263],–
781,O=C(C1CCOCC1)N1CCC(n2cnc(-c3ccc(Cl)cc3)c2Cl)CC1 [Example 264],–
990,COc1ccc(-c2ncn(C3CCN(C(=O)C4CCC(F)(F)CC4)CC3)c2C#N)cc1 [Example 265],–
149,CC(C)(F)C(=O)N1CCC(n2cnc(-c3ccc(F)cc3)c2C#N)CC1 [Example 266],–
594,N#Cc1c(-c2ccc(F)cc2)ncn1C1CCN(C(=O)C2CC(F)(F)C2)CC1 [Example 267],–
725,N#Cc1c(-c2ccccc2)ncn1C1CCN(C(=O)C2CC(F)(F)C2)CC1 [Example 268],–
452,N#Cc1c(-c2cccc(F)c2)ncn1C1CCN(C(=O)C2CC(F)(F)C2)CC1 [Example 269],–
569,N#Cc1c(-c2ccccc2F)ncn1C1CCN(C(=O)C2CC(F)(F)C2)CC1 [Example 270],–
275,N#Cc1c(-c2ccc(F)cc2F)ncn1C1CCN(C(=O)C2CCC(F)(F)CC2)CC1 [Example 271],–
138,N#Cc1c(-c2cccc(F)c2F)ncn1C1CCN(C(=O)C2CCC(F)(F)CC2)CC1 [Example 272],–
139,N#Cc1c(-c2ccc(F)c(F)c2)ncn1C1CCN(C(=O)C2CCC(F)(F)CC2)CC1 [Example 273],–
351,N#Cc1c(-c2cc(F)ccc2F)ncn1C1CCN(C(=O)C2CCC(F)(F)CC2)CC1 [Example 274],–
912,Cc1c(-c2ccc(F)cc2)ncn1C1CCN(C(=O)C2CCC(F)(F)CC2)CC1 [Example 275],–
244,Cc1c(-c2ccc(F)cc2)ncn1C1CCN(C(=O)C2CCOCC2)CC1 [Example 276],–
327,CC(F)(F)C(=O)N[C@H]1CC[C@@H](n2cnc(-c3ccc(F)cc3)c2)CC1 [Example 288],–
194,CC(C)(C(=O)N[C@H]1CC[C@@H](n2cnc(-c3ccc(F)cc3)c2)CC1)C(F)(F)F [Example 290],–
